Consider 20 compounds from patent publication US7109243B2 (IRM LLC, priority 2003, dated 2006).

The target in one experiment is Cathepsin S (Homo sapiens, UniProt P25774). The experiment is described as follows: Cathepsin S inhibition assay (fluorogenic peptide substrate). The format is biochemical. As to conditions: Table II, compounds of Formula I; read-out: Ki Cat. S. The essentials: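 Ki values come from nonlinear fitting of inhibited hydrolysis rates, taking free and total inhibitor concentrations as equal. Rates measured as rising fluorescence at 380/450 nm after reaction start with 50 μM final acetyl-HPVK-aminocarbamoylcoumarin.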

The target in the next experiment is T1, Cathepsin K (Homo sapiens, UniProt P43235).
T1 sequence (P43235 115-329): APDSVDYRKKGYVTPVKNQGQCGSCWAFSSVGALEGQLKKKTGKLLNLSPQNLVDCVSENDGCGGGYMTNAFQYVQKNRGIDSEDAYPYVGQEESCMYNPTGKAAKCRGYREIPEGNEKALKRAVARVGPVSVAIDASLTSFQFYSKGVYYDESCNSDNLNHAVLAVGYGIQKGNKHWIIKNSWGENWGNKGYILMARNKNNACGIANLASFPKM
Kind of experiment: Cathepsin K inhibition assay (fluorogenic peptide substrate); selectivity ratio vs cathepsin S. The experiment is classed as biochemical. As to conditions: ratio of cathepsin K inhibition constant to cathepsin S inhibition constant; Table II. The essentials:
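Inhibition constants for competitive inhibitors come from apparent values fitted to enzyme progress curves. Substrate, acetyl-Lys-His-Pro-Lys-aminocarbamoylcoumarin (40 μM final), starts the reaction; fluorescence rise read at 380 nm excitation, 450 nm emission. Selectivity ratio: other cathepsin constant over cathepsin S constant.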

The structures appear in SMILES notation.

Cathepsin S, sequence (P25774 115-331, species assumed): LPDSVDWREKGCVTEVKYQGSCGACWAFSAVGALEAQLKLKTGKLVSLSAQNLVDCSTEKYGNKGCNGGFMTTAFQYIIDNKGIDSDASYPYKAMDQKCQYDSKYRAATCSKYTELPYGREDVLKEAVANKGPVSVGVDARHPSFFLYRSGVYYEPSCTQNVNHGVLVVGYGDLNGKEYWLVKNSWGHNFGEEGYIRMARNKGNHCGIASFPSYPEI

What is called Ki is the equilibrium dissociation constant of an inhibitor or competing ligand from its target. In the case of `CS(=O)(=O)c1cccc(C(=O)N[C@@H](CC2CCCCC2)C(=O)NCCNc2ccc(F)cc2)c1` [Compound 296, N-(S)-{2-cyclohexyl-1-[2-(4-fluoro-phenylamino)-ethylcarbamoyl]-ethyl}-3-methanesulfonyl-benzamide], at Cathepsin S, the Ki was less than 100 nM. Also, the “Selectivity for Cat. S over Cat. K” value at Cathepsin K is listed as “+++ (+++, >1000)”.
For `O=C(Cc1nnn[nH]1)N[C@@H](CC1CCCCC1)C(=O)NCCNc1ccc(F)cc1` [Compound 297, 3-Cyclohexyl-N-[2-(4-fluoro-phenylamino)-ethyl]-2-(S)-(2-1H-tetrazol-5-yl-acetylamino)-propionamide], at Cathepsin S, the Ki was less than 1000 nM. For the same compound, the “Selectivity for Cat. S over Cat. K” value on Cathepsin K is given as “++ (++, >100)”.
For the compound `O=C(N[C@@H](CC1CCCCC1)C(=O)NCCNc1ccc(F)cc1)C1CC1` [Compound 298, Cyclopropanecarboxylic acid (S)-{2-cyclohexyl-1-[2-(4-fluoro-phenylamino)-ethylcarbamoyl]-ethyl}-amide], on Cathepsin S, the Ki was less than 100 nM. Besides, the “Selectivity for Cat. S over Cat. K” value at Cathepsin K is on record as “++ (++, >100)”.
In the case of `CS(=O)(=O)Nc1ccc(C(=O)N[C@@H](CC2CCCCC2)C(=O)NCCNc2ccc(F)cc2)cc1` [Compound 299, N-(S)-{2-cyclohexyl-1-[2-(4-fluoro-phenylamino)-ethylcarbamoyl]-ethyl}-4-methanesulfonylamino-benzamide], the Ki on Cathepsin S is less than 100 nM. In addition, on Cathepsin K, the “Selectivity for Cat. S over Cat. K” value was “+ (+, >10)”.
For the compound `COc1ccc(NCCNC(=O)[C@H](Cc2ccc(Oc3ccc(Cl)cc3)cc2)NC(=O)c2cccc(C)c2)cc1` [Compound 300, (S)-N-{2-[4-(4-Chloro-phenoxy)-phenyl]-1-[2-(4-methoxy-phenylamino)-ethylcarbamoyl]-ethyl}-3-methyl-benzamide], the Ki at Cathepsin S is less than 100 nM. For the same compound, the “Selectivity for Cat. S over Cat. K” value on Cathepsin K is recorded as “++ (++, >100)”.
As to `COc1ccc(CC(=O)N[C@@H](CC2CCCCC2)C(=O)NCCNc2ccc(F)cc2)cc1` [Compound 301, 3-Cyclohexyl-N-[2-(4-fluoro-phenylamino)-ethyl]-2-(S)-[2-(4-methoxy-phenyl)-acetylamino]-propionamide], the Ki on Cathepsin S is less than 100 nM. Also, the “Selectivity for Cat. S over Cat. K” value at Cathepsin K is reported as “++ (++, >100)”.
As to `O=C(Cc1cccc(Cl)c1)N[C@@H](CC1CCCCC1)C(=O)NCCNc1ccc(F)cc1` [Compound 302, 2-(S)-[2-(3-Chloro-phenyl)-acetylamino]-3-cyclohexyl-N-[2-(4-fluoro-phenylamino)-ethyl]-propionamide], the Ki at Cathepsin S is less than 100 nM. Further, the “Selectivity for Cat. S over Cat. K” value at Cathepsin K is on record as “++ (++, >100)”.
Turning to `O=C(Cc1ccccc1)N[C@@H](CC1CCCCC1)C(=O)NCCNc1ccc(F)cc1` [Compound 303, 3-Cyclohexyl-N-[2-(4-fluoro-phenylamino)-ethyl]-2-(S)-phenylacetylamino-propionamide], the Ki on Cathepsin S was less than 100 nM. Besides, the “Selectivity for Cat. S over Cat. K” value at Cathepsin K is on record as “++ (++, >100)”.
For `Cc1ccccc1CC(=O)N[C@@H](CC1CCCCC1)C(=O)NCCNc1ccc(F)cc1` [Compound 304, 3-Cyclohexyl-N-[2-(4-fluoro-phenylamino)-ethyl]-2-(S)-(2-o-tolyl-acetylamino)-propionamide], on Cathepsin S, the inhibitory constant (Ki) was less than 100 nM. For the same compound, at Cathepsin K, the “Selectivity for Cat. S over Cat. K” value is “+++ (+++, >1000)”.
For the compound `O=C(Cc1ccc(Cl)cc1)N[C@@H](CC1CCCCC1)C(=O)NCCNc1ccc(F)cc1` [Compound 305, 2-(S)-[2-(4-Chloro-phenyl)-acetylamino]-3-cyclohexyl-N-[2-(4-fluoro-phenylamino)-ethyl]-propionamide], at Cathepsin S, the Ki was less than 100 nM. Moreover, the “Selectivity for Cat. S over Cat. K” value at Cathepsin K is on record as “++ (++, >100)”.
Regarding `O=C(Cc1ccccc1F)N[C@@H](CC1CCCCC1)C(=O)NCCNc1ccc(F)cc1` [Compound 306, 3-Cyclohexyl-2-(S)-[2-(2-fluoro-phenyl)-acetylamino]-N-[2-(4-fluoro-phenylamino)-ethyl]-propionamide], the Ki on Cathepsin S was less than 100 nM. For the same compound, the “Selectivity for Cat. S over Cat. K” value on Cathepsin K is “+++ (+++, >1000)”.
On to `O=C(N[C@@H](CC1CCCCC1)C(=O)NCCNc1ccc(F)cc1)C(c1ccccc1)c1ccccc1` [Compound 307, 3-Cyclohexyl-2-(S)-diphenylacetylamino-N-[2-(4-fluoro-phenylamino)-ethyl]-propionamide], for which the Ki on Cathepsin S was less than 100 nM. For the same compound, the “Selectivity for Cat. S over Cat. K” value at Cathepsin K was “+++ (+++, >1000)”.
With `CC(C(=O)NC(CC1CCCCC1)C(=O)NCCNc1ccc(F)cc1)c1ccc(-c2ccccc2)c(F)c1` [Compound 308, N-(S)-{2-cyclohexyl-1-[2-(4-fluoro-phenylamino)-ethylcarbamoyl]-ethyl}-2-(2-fluoro-biphenyl-4-yl)-propionamide], the Ki at Cathepsin S is less than 100 nM. Besides, at Cathepsin K, the “Selectivity for Cat. S over Cat. K” value is given as “++ (++, >100)”.
Consider `Cc1ccc(C(C)C(=O)N[C@@H](CC2CCCCC2)C(=O)NCCNc2ccc(F)cc2)cc1` (stereo partly drawn) [Compound 309, N-{2-cyclohexyl-1-(S)-[2-(4-fluoro-phenylamino)-ethylcarbamoyl]-ethyl}-2-p-tolyl-propionamide], for which the Ki on Cathepsin S is less than 100 nM. Moreover, on Cathepsin K, the “Selectivity for Cat. S over Cat. K” value is recorded as “++ (++, >100)”.
Turning to `CC(C(=O)N[C@@H](CC1CCCCC1)C(=O)NCCNc1ccc(F)cc1)c1ccc(F)cc1` (stereo partly drawn) [Compound 310, N-{2-cyclohexyl-1-(S)-[2-(4-fluoro-phenylamino)-ethylcarbamoyl]-ethyl}-2-(4-fluoro-phenyl)-propionamide], the Ki at Cathepsin S was less than 100 nM. The “Selectivity for Cat. S over Cat. K” value on Cathepsin K is “++ (++, >100)”.
Take `CC(C(=O)N[C@@H](CC1CCCCC1)C(=O)NCCNc1ccc(F)cc1)c1ccc(O)cc1` (stereo partly drawn) [Compound 311, N-{2-cyclohexyl-1-(S)-[2-(4-fluoro-phenylamino)-ethylcarbamoyl]-ethyl}-2-(4-hydroxy-phenyl)-propionamide]: at Cathepsin S, the Ki was less than 100 nM. The “Selectivity for Cat. S over Cat. K” value at Cathepsin K was “+ (+, >10)”.
Take `CC(C(=O)N[C@@H](CC1CCCCC1)C(=O)NCCNc1ccc(F)cc1)c1ccc(Cl)cc1` (stereo partly drawn) [Compound 312, 2-(4-Chloro-phenyl)-N-{2-cyclohexyl-1-(S)-[2-(4-fluoro-phenylamino)-ethylcarbamoyl]-ethyl}-propionamide]: the Ki at Cathepsin S was less than 100 nM. In addition, on Cathepsin K, the “Selectivity for Cat. S over Cat. K” value is on record as “++ (++, >100)”.
Regarding `CS(=O)(=O)c1ccc(C(=O)N[C@@H](CC2CCCCC2)C(=O)NCCNc2ccc(F)cc2)cc1` [Compound 313, N-(S)-{2-cyclohexyl-1-[2-(4-fluoro-phenylamino)-ethylcarbamoyl]-ethyl}-4-methanesulfonyl-benzamide], on Cathepsin S, the Ki was less than 1000 nM. Besides, the “Selectivity for Cat. S over Cat. K” value at Cathepsin K is “+ (+, >10)”.
In the case of `O=C(N[C@@H](CC1CCCCC1)C(=O)NCCNc1ccc(F)cc1)c1cscn1` [Compound 314, Thiazole-4-carboxylic acid (S)-{2-cyclohexyl-1-[2-(4-fluoro-phenylamino)-ethylcarbamoyl]-ethyl}-amide], on Cathepsin S, the Ki was less than 100 nM. Further, on Cathepsin K, the “Selectivity for Cat. S over Cat. K” value is reported as “+ (+, >10)”.
With `C[C@@H](C(=O)N[C@@H](CC1CCCCC1)C(=O)NCCNc1ccc(F)cc1)c1ccccc1` [Compound 315, N-{2-cyclohexyl-1-(S)-[2-(4-fluoro-phenylamino)-ethylcarbamoyl]-ethyl}-2-(R)-phenyl-propionamide], the Ki on Cathepsin S was less than 100 nM. Further, at Cathepsin K, the “Selectivity for Cat. S over Cat. K” value is “++ (++, >100)”.
